{"source": "patent US20180057538A1", "about": "“POTENT AND HIGHLY SOLUBLE PEGYLATED COMPSTATIN PEPTIDES” (The Regents of the University of California, priority 2016, published 2018)", "molecules": {"B1": {"name": "Peptide 2, Ac-RSI[CVWQDWGAHRC]T-PEG8-NH2 (peptide)", "peptide": "Ac-RSICVWQDWGAHRCT-{PEG8′-NH2}", "modifications": "disulfide 4-14", "notes": "Synthetic compstatin analog with an Arg-Ser N-terminal extension and a C-terminal PEG8; molecular mass 2279; also called PEGylated Peptide 2; PEGylated compstatin peptide"}, "B2": {"name": "Competition Peptide, unlabeled, Ac-I[CVWQDWGAHRC]TAGK-NH2 (peptide)", "peptide": "Ac-ICVWQDWGAHRCTAGK-NH2", "modifications": "disulfide 2-12", "SMILES": "CC[C@H](C)[C@H](NC(C)=O)C(=O)N[C@H]1CSSC[C@@H](C(=O)N[C@H](C(=O)N[C@@H](C)C(=O)NCC(=O)N[C@@H](CCCCN)C(N)=O)[C@@H](C)O)NC(=O)[C@H](CCCNC(=N)N)NC(=O)[C@H](Cc2c[nH]cn2)NC(=O)[C@H](C)NC(=O)CNC(=O)[C@H](Cc2c[nH]c3ccccc23)NC(=O)[C@H](CC(=O)O)NC(=O)[C@H](CCC(N)=O)NC(=O)[C@H](Cc2c[nH]c3ccccc23)NC(=O)[C@H](C(C)C)NC1=O"}}, "key": {"complement activation [1]": {"system": "complement activation", "conditions": "alternative pathway-mediated erythrocyte lysis assay; cited from earlier work"}, "[2]": {"system": "NHS-induced basal C5b-9n deposition by RPE cells", "test": "Human RPE cell-based assay, anti-C5b-9n immunofluorescence of sub-RPE deposits", "conditions": "for reduction in NHS-induced basal C5b-9n deposition: 2 μM peptide, 10% NHS, 24 h, decellularized whole mounts, normalized to NHS-treated samples", "description": "The in vitro model of drusen biogenesis was used according to Johnson et al. (Proceedings of the National Academy of Sciences of the United States of America 2011; 108(45):18277-82) and used in assessing the efficacy of compstatin peptides. Briefly, human fetal RPE cells within the second passage were grown on laminin-coated porous inserts (Millipore, Billerica, Mass., USA) in Miller medium supplemented with 5% fetal bovine serum (FBS, HyClone, Logan, Utah, USA) at 37° C. and 5% CO2 in a humidified incubator. After culturing for 2-3 months, cells were rinsed with PBS and treated with Miller medium containing either 5% FBS (negative control) or 10% NHS without or with the inhibitory peptides (2 μM). The choice of 2 μM dose for this assay was based on the intent to use double the IC50 concentration, which was determined to be ˜1 μM. All inhibitory peptides were pre-mixed with NHS on a rocker at room temperature for 30 min and then warmed to 37° C. prior to addition to RPE cell cultures for 24 h. […]\nImmunolabeled RPE sections and decellularized culture inserts were imaged using a Leica SP5 confocal microscope. Single-plane images from multiple non-overlapping areas were acquired using a 63× objective, and C5b-9n (MAC) immunofluorescence signals were quantified using ImageJ (NIH), as described Gorham et al. (Experimental Eye Research 2013; 116:96-108). Briefly, the thresholding tool of ImageJ was used to analyze each color channel separately, with the upper threshold set to include C5b-9n-associated fluorescence and the lower threshold set to eliminate any background fluorescence. For statistical analysis, fluorescence intensity measurements of C5b-9n were averaged with respect to the number of RPE nuclei per image (for vibratome sections) or total image area (for decellularized whole-mount samples) and then expressed as a percentage of the corresponding fluorescence intensities from samples exposed to NHS in the absence of any inhibitory peptide (positive control). All data were obtained from multiple images (n≧9) and expressed as mean±SEM. […]"}, "complement activation [3]": {"system": "complement activation", "test": "Hemolytic assay (rabbit erythrocytes lysed by normal human serum in VBS-MgEGTA)", "format": "cell-based", "conditions": "ligand concentration at 50% maximal inhibition, triplicate runs (N = 3)", "description": "Rabbit erythrocytes (Complement Technology, Inc, Tyler, Tex., USA) were washed with PBS and then resuspended in a veronal-buffered saline solution containing 5 mM MgCl2 and 10 mM EGTA (VBS-MgEGTA). Two-fold serial dilutions of the compstatin analogs were performed in round-bottom 96-well plates and then further diluted in VBS-MgEGTA. Normal human serum (NHS; Complement Technology, Inc) diluted in VBS-MgEGTA was added to each well followed by incubation at ambient temperature for 15 minutes. Subsequently, 30 μL of rabbit erythrocytes at a concentration of 1.25×10^8 cells/mL were added to each well. Positive controls for lysis consisted of: (1) erythrocytes in deionized water and (2) erythrocytes in NHS diluted with VBS-MgEGTA. Negative controls for lysis consisted of: (1) erythrocytes in VBS-MgEGTA and (2) erythrocytes in NHS diluted in VBS-EDTA. Next, plates were incubated at 37° C. for 20 minutes and then ice cold VBS containing 50 mM EDTA was added to each well to quench hemolytic reactions. Plates were centrifuged at 1000×g for 5 minutes and the supernatant was diluted 1:1 with deionized water in flat-bottom 96-well plates. Absorbance was measured spectrophotometrically at 405 nm to quantify lysis."}, "[4]": {"test": "Apparent solubility measurements in PBS pH 7.4", "format": "physicochemical", "conditions": "PBS pH 7.4, 5-10 mg/mL", "description": "Compstatin analogs were dissolved in phosphate buffered saline (PBS) at pH 7.4 to concentrations of 10, 7.5, and 5 mg/mL. At each concentration point, the peptide solutions were vortexed for 30 seconds and then centrifuged at 13000×g for 5 minutes. The supernatant was collected and measured 5 times spectrophotometrically at 280 nm. Optical densities were converted into concentration according to Beer-Lambert law. An extinction coefficient of 11125 M^−1 cm^−1 was used for each compstatin analog since each peptide contains two tryptophan amino acids (tryptophan extinction coefficient being 5562.5 M^−1 cm^−1)."}, "[5]": {"target": "complement C3 in normal human serum (human, UniProt P01024 23-1663)", "sequence (P01024 23-1663 limits assumed)": "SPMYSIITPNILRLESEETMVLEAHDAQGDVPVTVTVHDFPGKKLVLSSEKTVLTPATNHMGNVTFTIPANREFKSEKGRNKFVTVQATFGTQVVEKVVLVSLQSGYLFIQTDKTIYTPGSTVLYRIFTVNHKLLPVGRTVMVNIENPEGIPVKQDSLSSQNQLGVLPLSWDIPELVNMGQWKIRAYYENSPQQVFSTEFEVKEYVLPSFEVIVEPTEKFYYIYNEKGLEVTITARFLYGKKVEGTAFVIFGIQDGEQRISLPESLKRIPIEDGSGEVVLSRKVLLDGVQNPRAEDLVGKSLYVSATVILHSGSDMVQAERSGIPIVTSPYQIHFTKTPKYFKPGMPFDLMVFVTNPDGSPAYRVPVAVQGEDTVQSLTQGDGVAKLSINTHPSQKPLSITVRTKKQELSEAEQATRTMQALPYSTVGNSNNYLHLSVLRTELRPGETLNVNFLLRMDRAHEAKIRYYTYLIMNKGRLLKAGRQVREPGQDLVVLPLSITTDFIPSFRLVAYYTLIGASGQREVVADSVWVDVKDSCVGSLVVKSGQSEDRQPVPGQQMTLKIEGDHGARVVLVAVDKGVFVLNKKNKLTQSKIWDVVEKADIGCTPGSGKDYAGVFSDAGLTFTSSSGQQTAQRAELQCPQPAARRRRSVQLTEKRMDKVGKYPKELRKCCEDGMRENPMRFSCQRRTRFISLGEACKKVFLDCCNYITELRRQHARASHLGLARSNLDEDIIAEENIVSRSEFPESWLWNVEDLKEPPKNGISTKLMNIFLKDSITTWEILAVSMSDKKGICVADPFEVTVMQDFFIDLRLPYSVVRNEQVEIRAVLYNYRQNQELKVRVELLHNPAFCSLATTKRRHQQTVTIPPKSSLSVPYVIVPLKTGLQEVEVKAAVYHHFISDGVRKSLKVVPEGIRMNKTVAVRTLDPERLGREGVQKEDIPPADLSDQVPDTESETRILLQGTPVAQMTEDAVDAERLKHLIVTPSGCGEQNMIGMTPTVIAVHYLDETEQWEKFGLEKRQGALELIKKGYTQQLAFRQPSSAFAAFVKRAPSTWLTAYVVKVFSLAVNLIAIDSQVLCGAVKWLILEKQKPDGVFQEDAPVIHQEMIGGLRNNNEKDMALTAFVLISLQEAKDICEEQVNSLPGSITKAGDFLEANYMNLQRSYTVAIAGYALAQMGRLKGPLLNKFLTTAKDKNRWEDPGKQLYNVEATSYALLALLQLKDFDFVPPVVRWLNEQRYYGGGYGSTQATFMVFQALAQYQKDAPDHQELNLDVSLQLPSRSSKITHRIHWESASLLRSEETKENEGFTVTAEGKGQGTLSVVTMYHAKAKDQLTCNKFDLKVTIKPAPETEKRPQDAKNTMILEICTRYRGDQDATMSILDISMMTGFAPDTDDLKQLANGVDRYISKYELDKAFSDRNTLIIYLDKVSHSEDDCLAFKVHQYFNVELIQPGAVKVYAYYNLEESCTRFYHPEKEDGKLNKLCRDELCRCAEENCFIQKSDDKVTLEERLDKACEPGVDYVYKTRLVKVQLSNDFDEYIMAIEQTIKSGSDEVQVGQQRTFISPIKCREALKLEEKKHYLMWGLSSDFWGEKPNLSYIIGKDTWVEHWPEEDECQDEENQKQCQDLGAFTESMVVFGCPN", "test": "cell-based or functional assay"}, "[6]": {"target": "T1, purified C3c (Complement Technology) (UniProt P01024 23-667; P01024 749-954; P01024 1321-1663, limits assumed)", "T1 construct": "domain: C3c; C3c is a multi-chain proteolytic fragment of C3; also called complement protein C3c", "T1 sequence (P01024 23-667 limits assumed, chain 1 of 3)": "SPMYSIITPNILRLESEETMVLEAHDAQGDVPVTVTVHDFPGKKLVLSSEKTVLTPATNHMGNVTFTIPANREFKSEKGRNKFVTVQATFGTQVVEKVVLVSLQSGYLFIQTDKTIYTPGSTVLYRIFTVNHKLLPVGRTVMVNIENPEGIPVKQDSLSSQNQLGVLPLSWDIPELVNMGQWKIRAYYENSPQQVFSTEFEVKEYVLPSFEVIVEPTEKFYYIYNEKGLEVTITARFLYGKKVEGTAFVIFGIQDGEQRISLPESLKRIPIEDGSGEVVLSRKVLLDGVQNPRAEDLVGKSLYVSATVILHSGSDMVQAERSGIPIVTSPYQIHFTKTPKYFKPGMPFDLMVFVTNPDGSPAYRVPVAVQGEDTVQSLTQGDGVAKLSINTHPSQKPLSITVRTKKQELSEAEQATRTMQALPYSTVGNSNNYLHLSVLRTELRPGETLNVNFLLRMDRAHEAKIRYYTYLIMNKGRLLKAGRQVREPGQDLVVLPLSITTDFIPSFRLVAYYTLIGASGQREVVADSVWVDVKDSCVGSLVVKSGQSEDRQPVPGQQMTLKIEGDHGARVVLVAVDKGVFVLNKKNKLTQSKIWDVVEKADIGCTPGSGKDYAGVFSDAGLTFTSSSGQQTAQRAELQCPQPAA", "T1 sequence (P01024 749-954 limits assumed, chain 2 of 3)": "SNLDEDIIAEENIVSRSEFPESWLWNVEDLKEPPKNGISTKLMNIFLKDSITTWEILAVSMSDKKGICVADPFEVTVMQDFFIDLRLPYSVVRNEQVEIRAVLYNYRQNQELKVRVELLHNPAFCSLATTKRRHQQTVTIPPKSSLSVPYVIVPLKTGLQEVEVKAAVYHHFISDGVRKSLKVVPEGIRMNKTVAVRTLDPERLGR", "T1 sequence (P01024 1321-1663 limits assumed, chain 3 of 3)": "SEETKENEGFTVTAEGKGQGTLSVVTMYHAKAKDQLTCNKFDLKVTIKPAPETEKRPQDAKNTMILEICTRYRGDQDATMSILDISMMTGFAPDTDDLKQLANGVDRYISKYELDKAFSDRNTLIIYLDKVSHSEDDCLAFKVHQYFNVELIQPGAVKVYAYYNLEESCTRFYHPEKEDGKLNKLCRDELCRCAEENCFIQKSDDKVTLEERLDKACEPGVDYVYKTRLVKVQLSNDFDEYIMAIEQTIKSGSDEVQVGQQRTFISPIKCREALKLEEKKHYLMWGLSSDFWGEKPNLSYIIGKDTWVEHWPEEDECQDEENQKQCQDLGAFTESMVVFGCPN", "test": "competitive microscale thermophoresis (Monolith NT.115); Peptide 2 titrated against Cy5-labeled Competition Peptide on purified C3c", "description": "(§1) The binding affinity of Peptide 2 was evaluated in a competitive microscale thermophoresis assay, using a Monolith NT.115 instrument (NanoTemper Technologies GmbH, Munich, Germany). Competition was performed against the Competition Peptide, labeled with Cy5 for signal detection. Two different 1:1 serial dilution series of Peptide 2 were performed in MST buffer (50 mM Tris-HCl, 150 mM NaCl, 10 mM MgCl₂, 0.05% Tween 20). The first dilution series started with a final concentration of 333 μM and ended in a final concentration of 40.69 nM, while the second dilution series started with a final concentration of 166.67 μM and ended in a final concentration of 20.35 nM. To each dilution series of Peptide 2, purified C3c (Complement Technology) and the Competition Peptide (unlabeled form) were dissolved to final concentrations of 117 nM (Peptide 2) and 50 nM (Competition Peptide). The resulting mixture was incubated for 15 minutes in the dark at room temperature. Following the incubation, the samples were loaded into hydrophilic capillary tubes and the thermophoretic response of the fluorescently labeled marker was measured. […]\n(§2) The binding affinity of Peptide 2 to C3c was determined using the microscale thermophoresis assay described herein. […]"}, "[7]": {"target": "T1, purified C3c (Complement Technology)", "test": "competitive microscale thermophoresis: Peptide 2 titrated against C3c in the presence of the Cy5-labeled Competition Peptide, mean±SEM of 7 replicates", "description": "The labeled form of the Competition Peptide was used. Thermophoretic data is plotted as mean±SEM from 7 replicate experiments, together with the fitted binding curve. The dotted lines in red indicate the 95% confidence interval of the fitted binding curve. The black dotted line represents the baseline thermophoretic response in the absence of binding. The inset table indicates the KD±SEM.\nas §1, with “To each dilution series of Peptide 2, purified C3c (Complement Technology) and the Competition Peptide (unlabeled form) were dissolved to final concentrations of 117 nM (Peptide 2) and 50 nM (Competition Peptide). The resulting mixture was incubated for 15 minutes in the dark at room temperature.” left out\nas §2"}}, "note": "Like-named read-outs stand apart in the source and are kept apart here. Positions of bridges follow the written chain, without caps; N, C: chain ends. Primed or numbered codes have the meaning given here. PEG8′ = 8 PEG blocks attached at the backbone of the C-terminal amino acid"}
{"molecule": "CC[C@H](C)[C@H](N)C(=O)N[C@H]1CSSC[C@@H](C(=O)N[C@H](C(N)=O)[C@@H](C)O)NC(=O)[C@H](CCCN=C(N)N)NC(=O)[C@H](Cc2cnc[nH]2)NC(=O)[C@H](Cc2cnc[nH]2)NC(=O)CNC(=O)[C@H](Cc2c[nH]c3ccccc23)NC(=O)[C@H](CC(=O)O)NC(=O)[C@H](CCC(N)=O)NC(=O)[C@H](C(C)C)NC(=O)[C@H](C(C)C)NC1=O", "note": "[compstatin, ICVVQDWGHHRCT]", "values": [{"measurement": "IC50", "setting": "complement activation [1]", "value": "~12900", "unit": "nM"}]}
{"molecule": "Ac-RSI[CVWQDWGAHRC]T-NH2 (Ac-RSICVWQDWGAHRCT-NH2; disulfide 4-14) [Peptide 1, reference compound]", "values": [{"measurement": "reduction in NHS-induced basal C5b-9n deposition", "setting": "[2]", "value": 50, "unit": "%"}]}
{"molecule": "CC[C@H](C)[C@H](NC(=O)[C@H](CO)NC(=O)[C@H](CCCNC(=N)N)NC(C)=O)C(=O)N[C@H]1CSSC[C@@H](C(=O)N[C@H](C(=O)NCCOCCOCCOCCOCCOCCOCCOCCOCCC(N)=O)[C@@H](C)O)NC(=O)[C@H](CCCNC(=N)N)NC(=O)[C@H](Cc2c[nH]cn2)NC(=O)[C@H](C)NC(=O)CNC(=O)[C@H](Cc2c[nH]c3ccccc23)NC(=O)[C@H](CC(=O)O)NC(=O)[C@H](CCC(N)=O)NC(=O)[C@H](Cc2c[nH]c3ccccc23)NC(=O)[C@H](C(C)C)NC1=O", "note": "[Peptide 2, Ac-RSI[CVWQDWGAHRC]T-PEG8-NH2]", "values": [{"measurement": "IC50", "setting": "complement activation [3]", "value": 960, "unit": "nM"}, {"measurement": "apparent solubility (comparison)", "setting": "[4]", "value": "significantly higher apparent solubility than the parent Peptide 1 and the Competition Peptide"}, {"measurement": "slope of correlation between calculated and observed concentrations", "setting": "[4]; absorbance at 280 nm", "value": 0.92}, {"measurement": "reduction in NHS-induced basal C5b-9n deposition", "setting": "[2]", "value": 80, "unit": "%"}, {"measurement": "inhibitory effect relative to parent Peptide 1", "setting": "[2]; formation of C5b-9-rich sub-RPE deposits", "value": "two-fold greater inhibitory effect"}]}
{"molecule": "Ac-RSICVWQDWGAHRCT-NH2 (disulfide 4-14)", "note": "[Peptide 1, Ac-RSI[CVWQDWGAHRC]T-NH2]", "values": [{"measurement": "Mean IC50, hemolytic assay (rabbit erythrocytes, normal human serum, alternative pathway)", "setting": "[5]", "value": 970, "unit": "nM"}]}
{"molecule": "B1", "values": [{"measurement": "Mean IC50, hemolytic assay (rabbit erythrocytes, normal human serum, alternative pathway)", "setting": "[5]", "value": 960, "unit": "nM"}, {"measurement": "Kd", "setting": "[6]", "value": 690, "unit": "nM"}, {"measurement": "IC50 (read off the curve)", "setting": "[7]", "value": "~700", "unit": "nM"}]}
{"molecule": "B2", "values": [{"measurement": "Mean IC50, hemolytic assay (rabbit erythrocytes, normal human serum, alternative pathway)", "setting": "[5]", "value": 1400, "unit": "nM"}]}
